# Data published in article doi:10.1101/2024.08.19.608619, “Discovery of potent SARS-CoV-2 nsp3 macrodomain inhibitors uncovers lack of translation to cellular antiviral response” (bioRxiv, 2024).
# Where two headings read alike, the source gives them in different places.
# How the values were obtained:
# Test in all cases: biochemical
# Parameters in all cases: In vitro kinase panel profiling, per cent remaining kinase activity at 10 uM
# [1] = molecular target: CDK9/cyclin T1(h) (Homo sapiens, UniProt P50750); details: atp_concentration=45, read-out: % of control remaining
# CDK9/cyclin T1(h), sequence (P50750 whole entry): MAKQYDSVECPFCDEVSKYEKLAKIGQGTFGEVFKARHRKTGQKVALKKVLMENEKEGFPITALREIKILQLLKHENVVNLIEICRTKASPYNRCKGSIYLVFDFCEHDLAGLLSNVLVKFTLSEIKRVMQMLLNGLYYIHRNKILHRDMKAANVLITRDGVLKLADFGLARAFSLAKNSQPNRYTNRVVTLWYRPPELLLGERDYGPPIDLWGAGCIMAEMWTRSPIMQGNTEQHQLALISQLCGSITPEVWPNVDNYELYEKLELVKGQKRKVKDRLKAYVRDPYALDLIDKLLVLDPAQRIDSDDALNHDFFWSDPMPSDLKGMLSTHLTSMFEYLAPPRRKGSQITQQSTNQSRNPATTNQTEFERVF
# CDK9/cyclin T1(h), sequence (O60563 whole entry partner): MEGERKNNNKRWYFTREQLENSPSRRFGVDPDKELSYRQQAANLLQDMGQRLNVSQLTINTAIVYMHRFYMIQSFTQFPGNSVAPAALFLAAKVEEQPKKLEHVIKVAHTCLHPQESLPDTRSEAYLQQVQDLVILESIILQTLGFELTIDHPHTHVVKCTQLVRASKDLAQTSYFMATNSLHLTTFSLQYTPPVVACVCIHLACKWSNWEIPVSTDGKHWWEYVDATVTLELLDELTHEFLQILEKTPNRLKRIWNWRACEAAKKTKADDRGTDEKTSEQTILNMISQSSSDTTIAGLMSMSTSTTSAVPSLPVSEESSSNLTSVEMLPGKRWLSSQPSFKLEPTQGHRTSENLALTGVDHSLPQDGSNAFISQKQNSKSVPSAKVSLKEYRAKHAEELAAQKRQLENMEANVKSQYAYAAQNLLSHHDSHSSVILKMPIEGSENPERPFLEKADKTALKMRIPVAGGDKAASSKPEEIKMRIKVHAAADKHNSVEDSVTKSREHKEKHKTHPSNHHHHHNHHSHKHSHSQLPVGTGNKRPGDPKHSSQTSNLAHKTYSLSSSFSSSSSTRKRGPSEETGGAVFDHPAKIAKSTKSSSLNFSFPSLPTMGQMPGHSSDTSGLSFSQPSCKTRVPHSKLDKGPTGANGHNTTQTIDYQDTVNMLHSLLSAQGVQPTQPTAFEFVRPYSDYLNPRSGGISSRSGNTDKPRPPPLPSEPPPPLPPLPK
# Source text: (§1) We derisk potential for off-target activity by profiling the compound in a CEREP panel, a standard secondary pharmacology assessment, as well as a kinase panel to derisk a potential hinge-binding motif in our leads, and a PARP panel to derisk activity against human […]. Reassuringly, the compounds are selective, with the only off-targets being moderate human CHRM2 and KOR receptors activity associated with ASAP-0011198.
# [2] = molecular target: JAK2(h) (Homo sapiens, UniProt O60674); details: atp_concentration=45, read-out: % of control remaining
# JAK2(h), sequence (O60674 whole entry): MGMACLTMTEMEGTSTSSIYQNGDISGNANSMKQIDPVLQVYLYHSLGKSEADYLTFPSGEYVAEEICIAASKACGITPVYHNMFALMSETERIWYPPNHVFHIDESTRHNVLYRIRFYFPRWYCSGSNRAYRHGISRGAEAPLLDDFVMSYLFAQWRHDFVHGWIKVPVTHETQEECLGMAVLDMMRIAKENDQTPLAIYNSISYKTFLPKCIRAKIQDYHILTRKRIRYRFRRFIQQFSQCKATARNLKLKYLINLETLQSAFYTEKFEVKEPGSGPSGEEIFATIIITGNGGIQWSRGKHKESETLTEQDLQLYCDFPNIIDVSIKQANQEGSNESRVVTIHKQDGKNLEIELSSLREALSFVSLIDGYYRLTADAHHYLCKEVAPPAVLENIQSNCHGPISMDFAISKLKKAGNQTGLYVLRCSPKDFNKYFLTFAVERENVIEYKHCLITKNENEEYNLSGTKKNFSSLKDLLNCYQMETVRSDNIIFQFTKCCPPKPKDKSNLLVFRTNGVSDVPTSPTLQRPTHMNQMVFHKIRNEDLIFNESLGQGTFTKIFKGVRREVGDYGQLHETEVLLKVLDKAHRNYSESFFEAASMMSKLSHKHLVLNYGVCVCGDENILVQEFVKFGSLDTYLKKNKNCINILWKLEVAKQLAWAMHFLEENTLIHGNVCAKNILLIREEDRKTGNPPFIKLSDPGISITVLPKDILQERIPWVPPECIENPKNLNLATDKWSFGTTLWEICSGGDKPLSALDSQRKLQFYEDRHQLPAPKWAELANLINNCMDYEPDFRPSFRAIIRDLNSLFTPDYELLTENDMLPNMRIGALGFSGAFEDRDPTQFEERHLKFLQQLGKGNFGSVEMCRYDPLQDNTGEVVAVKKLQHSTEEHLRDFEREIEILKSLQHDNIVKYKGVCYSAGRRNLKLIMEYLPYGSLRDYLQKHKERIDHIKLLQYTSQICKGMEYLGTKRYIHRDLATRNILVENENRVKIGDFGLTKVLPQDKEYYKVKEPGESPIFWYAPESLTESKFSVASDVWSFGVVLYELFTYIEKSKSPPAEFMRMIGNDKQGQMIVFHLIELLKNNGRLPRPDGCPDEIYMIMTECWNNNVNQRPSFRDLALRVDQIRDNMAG
# Source text: as §1
# [3] = molecular target: T1, NEK2(h) (Homo sapiens, UniProt P51955); details: atp_concentration=120, read-out: % of control remaining
# T1 sequence (P51955 1-445): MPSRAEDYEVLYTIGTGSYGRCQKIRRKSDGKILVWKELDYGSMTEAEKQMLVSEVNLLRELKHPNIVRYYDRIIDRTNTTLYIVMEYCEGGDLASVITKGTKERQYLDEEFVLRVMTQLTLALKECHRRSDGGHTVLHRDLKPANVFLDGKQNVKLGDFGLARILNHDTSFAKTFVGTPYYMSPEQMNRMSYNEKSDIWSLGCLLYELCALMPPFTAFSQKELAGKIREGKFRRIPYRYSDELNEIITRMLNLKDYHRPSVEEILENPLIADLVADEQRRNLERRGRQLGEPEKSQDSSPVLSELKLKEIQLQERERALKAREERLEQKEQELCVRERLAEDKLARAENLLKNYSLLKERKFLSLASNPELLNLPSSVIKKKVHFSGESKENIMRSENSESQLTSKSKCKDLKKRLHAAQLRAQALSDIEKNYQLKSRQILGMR
# Source text: as §1
# [4] = molecular target: ALK(h) (Homo sapiens, UniProt Q9UM73); details: atp_concentration=200, read-out: % of control remaining
# ALK(h), sequence (Q9UM73 whole entry): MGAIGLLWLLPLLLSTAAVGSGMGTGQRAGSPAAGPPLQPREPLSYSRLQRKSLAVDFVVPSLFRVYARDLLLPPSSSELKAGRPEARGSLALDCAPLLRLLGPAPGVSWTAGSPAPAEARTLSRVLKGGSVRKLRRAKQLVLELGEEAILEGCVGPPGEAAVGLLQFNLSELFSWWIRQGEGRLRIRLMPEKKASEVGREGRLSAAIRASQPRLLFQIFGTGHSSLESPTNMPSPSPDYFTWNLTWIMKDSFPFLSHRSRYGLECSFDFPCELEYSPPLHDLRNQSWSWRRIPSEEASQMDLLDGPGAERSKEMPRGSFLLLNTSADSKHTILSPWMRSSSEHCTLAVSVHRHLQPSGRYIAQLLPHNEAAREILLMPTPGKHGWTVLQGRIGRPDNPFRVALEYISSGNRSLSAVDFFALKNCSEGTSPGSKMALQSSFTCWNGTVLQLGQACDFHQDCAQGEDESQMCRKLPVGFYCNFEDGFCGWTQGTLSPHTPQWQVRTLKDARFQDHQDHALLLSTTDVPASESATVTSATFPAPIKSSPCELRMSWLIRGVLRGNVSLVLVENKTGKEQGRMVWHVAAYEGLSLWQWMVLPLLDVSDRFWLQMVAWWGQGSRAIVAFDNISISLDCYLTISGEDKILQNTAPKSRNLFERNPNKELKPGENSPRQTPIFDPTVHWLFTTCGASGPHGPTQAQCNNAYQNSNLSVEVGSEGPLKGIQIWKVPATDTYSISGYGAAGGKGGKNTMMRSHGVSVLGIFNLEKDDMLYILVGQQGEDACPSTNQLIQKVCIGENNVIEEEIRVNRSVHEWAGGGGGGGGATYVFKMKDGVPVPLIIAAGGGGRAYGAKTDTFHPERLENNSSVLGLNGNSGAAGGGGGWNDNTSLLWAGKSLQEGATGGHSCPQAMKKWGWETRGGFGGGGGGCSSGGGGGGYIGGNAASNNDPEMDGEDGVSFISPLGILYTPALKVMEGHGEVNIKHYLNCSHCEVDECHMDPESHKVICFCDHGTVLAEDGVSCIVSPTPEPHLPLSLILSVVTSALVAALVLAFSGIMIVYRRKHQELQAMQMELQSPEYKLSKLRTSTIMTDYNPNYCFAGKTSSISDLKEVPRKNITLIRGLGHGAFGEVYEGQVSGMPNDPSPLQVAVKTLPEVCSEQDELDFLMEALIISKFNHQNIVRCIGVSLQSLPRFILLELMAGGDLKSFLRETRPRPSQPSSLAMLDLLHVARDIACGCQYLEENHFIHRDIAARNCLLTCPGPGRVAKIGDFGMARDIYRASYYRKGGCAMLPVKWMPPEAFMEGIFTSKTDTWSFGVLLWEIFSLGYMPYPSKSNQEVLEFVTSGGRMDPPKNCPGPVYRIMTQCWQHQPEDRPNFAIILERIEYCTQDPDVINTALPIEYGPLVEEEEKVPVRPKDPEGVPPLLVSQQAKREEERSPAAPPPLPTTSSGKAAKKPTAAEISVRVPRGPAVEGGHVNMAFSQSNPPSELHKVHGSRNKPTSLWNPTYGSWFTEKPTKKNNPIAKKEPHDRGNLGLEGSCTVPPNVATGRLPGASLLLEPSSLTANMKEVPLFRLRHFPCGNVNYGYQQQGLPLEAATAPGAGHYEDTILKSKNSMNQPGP
# Source text: as §1
# [5] = molecular target: T2, Rse(h) (Homo sapiens, UniProt Q06418); details: atp_concentration=45, read-out: % of control remaining
# T2 construct: gene TYRO3
# T2 sequence (Q06418 1-890): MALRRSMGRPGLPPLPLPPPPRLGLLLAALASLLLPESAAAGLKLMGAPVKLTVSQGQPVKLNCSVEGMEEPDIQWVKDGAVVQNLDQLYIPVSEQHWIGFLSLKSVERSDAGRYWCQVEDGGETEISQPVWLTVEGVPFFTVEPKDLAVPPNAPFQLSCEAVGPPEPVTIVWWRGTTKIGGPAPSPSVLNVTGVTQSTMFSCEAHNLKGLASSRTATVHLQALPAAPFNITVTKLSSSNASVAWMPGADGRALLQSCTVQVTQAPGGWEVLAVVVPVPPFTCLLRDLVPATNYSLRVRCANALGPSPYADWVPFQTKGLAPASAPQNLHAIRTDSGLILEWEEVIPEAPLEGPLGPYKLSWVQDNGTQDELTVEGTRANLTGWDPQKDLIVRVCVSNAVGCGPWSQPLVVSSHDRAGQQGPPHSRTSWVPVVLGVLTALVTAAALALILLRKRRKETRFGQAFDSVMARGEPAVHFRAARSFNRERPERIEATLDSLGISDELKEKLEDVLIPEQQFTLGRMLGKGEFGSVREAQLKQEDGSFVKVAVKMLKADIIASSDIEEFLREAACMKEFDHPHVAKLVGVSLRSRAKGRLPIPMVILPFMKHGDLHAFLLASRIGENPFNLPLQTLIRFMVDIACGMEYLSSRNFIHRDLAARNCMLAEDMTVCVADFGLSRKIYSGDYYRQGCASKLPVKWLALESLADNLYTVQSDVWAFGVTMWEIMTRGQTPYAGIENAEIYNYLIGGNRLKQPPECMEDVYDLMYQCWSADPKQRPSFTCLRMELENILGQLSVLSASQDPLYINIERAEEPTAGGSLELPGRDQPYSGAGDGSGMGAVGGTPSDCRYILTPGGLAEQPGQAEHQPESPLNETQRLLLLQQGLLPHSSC
# Source text: as §1
# [6] = molecular target: T3, Abl(h) (Homo sapiens, UniProt P00519); details: atp_concentration=45, read-out: % of control remaining
# T3 construct: gene ABL1
# Source text: as §1
# [7] = molecular target: T4, eEF-2K(h) (Homo sapiens, UniProt O00418); details: atp_concentration=15, read-out: % of control remaining
# T4 construct: gene EEF2K
# T4 sequence (O00418 1-725): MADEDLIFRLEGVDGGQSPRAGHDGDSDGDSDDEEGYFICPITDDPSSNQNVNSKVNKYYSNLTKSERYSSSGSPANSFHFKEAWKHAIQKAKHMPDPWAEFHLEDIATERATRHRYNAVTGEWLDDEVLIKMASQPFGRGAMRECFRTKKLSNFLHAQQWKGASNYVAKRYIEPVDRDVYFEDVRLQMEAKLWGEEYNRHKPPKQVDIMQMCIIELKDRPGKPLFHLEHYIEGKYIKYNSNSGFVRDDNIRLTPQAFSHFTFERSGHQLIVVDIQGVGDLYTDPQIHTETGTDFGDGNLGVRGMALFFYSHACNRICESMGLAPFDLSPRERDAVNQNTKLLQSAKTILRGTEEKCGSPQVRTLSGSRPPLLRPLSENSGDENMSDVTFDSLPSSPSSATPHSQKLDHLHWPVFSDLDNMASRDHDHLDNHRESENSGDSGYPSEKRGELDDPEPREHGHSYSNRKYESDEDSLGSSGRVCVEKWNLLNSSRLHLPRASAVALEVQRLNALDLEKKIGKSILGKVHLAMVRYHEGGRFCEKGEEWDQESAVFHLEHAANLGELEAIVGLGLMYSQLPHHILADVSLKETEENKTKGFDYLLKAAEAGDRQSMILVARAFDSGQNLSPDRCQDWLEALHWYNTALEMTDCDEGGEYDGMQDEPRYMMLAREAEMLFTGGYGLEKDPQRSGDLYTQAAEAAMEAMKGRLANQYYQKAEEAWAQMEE
# Source text: as §1
# [8] = molecular target: T5, Rsk1(h) (Homo sapiens, UniProt Q15418); details: atp_concentration=45, read-out: % of control remaining
# T5 construct: gene RPS6KA1
# T5 sequence (Q15418 whole entry): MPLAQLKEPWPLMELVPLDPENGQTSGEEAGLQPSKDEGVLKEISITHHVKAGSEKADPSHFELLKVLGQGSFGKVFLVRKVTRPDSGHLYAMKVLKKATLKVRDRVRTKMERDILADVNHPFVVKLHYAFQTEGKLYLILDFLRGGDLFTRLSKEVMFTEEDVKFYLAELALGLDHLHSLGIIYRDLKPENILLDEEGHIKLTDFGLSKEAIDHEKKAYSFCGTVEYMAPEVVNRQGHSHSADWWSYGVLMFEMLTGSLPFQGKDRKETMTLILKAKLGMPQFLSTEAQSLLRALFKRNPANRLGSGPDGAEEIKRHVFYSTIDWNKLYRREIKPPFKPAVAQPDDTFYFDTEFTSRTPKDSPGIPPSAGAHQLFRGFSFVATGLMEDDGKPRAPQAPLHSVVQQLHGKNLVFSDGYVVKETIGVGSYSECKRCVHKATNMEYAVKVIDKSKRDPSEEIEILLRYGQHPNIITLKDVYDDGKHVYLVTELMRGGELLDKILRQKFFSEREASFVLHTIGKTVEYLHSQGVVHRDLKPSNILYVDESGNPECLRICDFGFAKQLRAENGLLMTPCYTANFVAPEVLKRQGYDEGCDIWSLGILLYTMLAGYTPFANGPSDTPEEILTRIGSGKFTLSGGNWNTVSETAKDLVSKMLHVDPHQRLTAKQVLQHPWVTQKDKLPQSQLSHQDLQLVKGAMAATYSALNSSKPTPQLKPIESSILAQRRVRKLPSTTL
# Source text: as §1
smiles,measurement,setting,value
CC(C)C(Nc1ncnc2[nH]ccc12)c1ccc2c(c1)S(=O)(=O)CCC2 (stereo not shown) [ASAP-0008327],remaining activity at 10 µM,[1]; batch_name=ASAP-0008327-001,114%
same,remaining activity at 10 µM,[2]; batch_name=ASAP-0008327-001,110%
same,remaining activity at 10 µM,[3]; batch_name=ASAP-0008327-001,118%
same,remaining activity at 10 µM,[4]; batch_name=ASAP-0008327-001,93%
same,remaining activity at 10 µM,[5]; batch_name=ASAP-0008327-001,115%
same,remaining activity at 10 µM,[6]; batch_name=ASAP-0008327-001,93%
same,remaining activity at 10 µM,[7]; batch_name=ASAP-0008327-001,92%
same,remaining activity at 10 µM,[8]; batch_name=ASAP-0008327-001,92%
COc1ccc([C@@H](Cc2nnn[nH]2)NC(=O)c2ncnc3[nH]ccc23)cc1 [ASAP-0008340],remaining activity at 10 µM,[1]; batch_name=ASAP-0008340-001,117%
same,remaining activity at 10 µM,[2]; batch_name=ASAP-0008340-001,102%
same,remaining activity at 10 µM,[3]; batch_name=ASAP-0008340-001,100%
same,remaining activity at 10 µM,[4]; batch_name=ASAP-0008340-001,95%
same,remaining activity at 10 µM,[5]; batch_name=ASAP-0008340-001,88%
same,remaining activity at 10 µM,[6]; batch_name=ASAP-0008340-001,98%
same,remaining activity at 10 µM,[7]; batch_name=ASAP-0008340-001,96%
same,remaining activity at 10 µM,[8]; batch_name=ASAP-0008340-001,98%
CC(C)[C@@H](Nc1ncnc2[nH]c(-c3cnn(C)c3C#N)cc12)c1ccc2c(n1)OCCO2 [ASAP-0008418],remaining activity at 10 µM,[1]; batch_name=ASAP-0008418-001,45%
same,remaining activity at 10 µM,[2]; batch_name=ASAP-0008418-001,101%
same,remaining activity at 10 µM,[3]; batch_name=ASAP-0008418-001,94%
same,remaining activity at 10 µM,[4]; batch_name=ASAP-0008418-001,103%
same,remaining activity at 10 µM,[5]; batch_name=ASAP-0008418-001,116%
same,remaining activity at 10 µM,[6]; batch_name=ASAP-0008418-001,52%
same,remaining activity at 10 µM,[7]; batch_name=ASAP-0008418-001,111%
same,remaining activity at 10 µM,[8]; batch_name=ASAP-0008418-001,145%
CC(C)[C@H](Nc1ncnc2[nH]ccc12)c1ccc2c(c1)S(=O)(=O)CCC2 [ASAP-0008674],remaining activity at 10 µM,[1]; batch_name=ASAP-0008674-002,112%
same,remaining activity at 10 µM,[2]; batch_name=ASAP-0008674-002,99%
same,remaining activity at 10 µM,[3]; batch_name=ASAP-0008674-002,109%
same,remaining activity at 10 µM,[4]; batch_name=ASAP-0008674-002,100%
same,remaining activity at 10 µM,[5]; batch_name=ASAP-0008674-002,86%
same,remaining activity at 10 µM,[6]; batch_name=ASAP-0008674-002,105%
same,remaining activity at 10 µM,[7]; batch_name=ASAP-0008674-002,93%
same,remaining activity at 10 µM,[8]; batch_name=ASAP-0008674-002,102%
CC(C)[C@H](Nc1ncnc2[nH]c(-c3cnn(C)c3C#N)cc12)c1ccc2c(n1)OCCO2 [ASAP-0010715],remaining activity at 10 µM,[1]; batch_name=ASAP-0010715-002,79%
same,remaining activity at 10 µM,[2]; batch_name=ASAP-0010715-002,115%
same,remaining activity at 10 µM,[3]; batch_name=ASAP-0010715-002,105%
same,remaining activity at 10 µM,[4]; batch_name=ASAP-0010715-002,116%
same,remaining activity at 10 µM,[5]; batch_name=ASAP-0010715-002,105%
same,remaining activity at 10 µM,[6]; batch_name=ASAP-0010715-002,57%
same,remaining activity at 10 µM,[7]; batch_name=ASAP-0010715-002,108%
same,remaining activity at 10 µM,[8]; batch_name=ASAP-0010715-002,120%
CC(C)[C@@H](Nc1ncnc2[nH]c(-c3cnn(C)c3C#N)cc12)c1ccc2c(n1)OCCO2 [ASAP-0010716],remaining activity at 10 µM,[1]; batch_name=ASAP-0010716-002,84%
same,remaining activity at 10 µM,[2]; batch_name=ASAP-0010716-002,123%
same,remaining activity at 10 µM,[3]; batch_name=ASAP-0010716-002,76%
same,remaining activity at 10 µM,[4]; batch_name=ASAP-0010716-002,106%
same,remaining activity at 10 µM,[5]; batch_name=ASAP-0010716-002,107%
same,remaining activity at 10 µM,[6]; batch_name=ASAP-0010716-002,57%
same,remaining activity at 10 µM,[7]; batch_name=ASAP-0010716-002,106%
same,remaining activity at 10 µM,[8]; batch_name=ASAP-0010716-002,102%
CNCc1cc(-c2cc3c(N[C@@H](c4ccc5c(c4)S(=O)(=O)CCC5)C(C)C)ncnc3[nH]2)co1 [ASAP-0011176],remaining activity at 10 µM,[1]; batch_name=ASAP-0011176-002,40%
same,remaining activity at 10 µM,[2]; batch_name=ASAP-0011176-002,114%
same,remaining activity at 10 µM,[3]; batch_name=ASAP-0011176-002,105%
same,remaining activity at 10 µM,[4]; batch_name=ASAP-0011176-002,99%
same,remaining activity at 10 µM,[5]; batch_name=ASAP-0011176-002,81%
same,remaining activity at 10 µM,[6]; batch_name=ASAP-0011176-002,51%
same,remaining activity at 10 µM,[7]; batch_name=ASAP-0011176-002,82%
same,remaining activity at 10 µM,[8]; batch_name=ASAP-0011176-002,90%
CC(C)C(Nc1ncnc2[nH]c(C(=O)NC3CCN(C)C3)cc12)c1ccc2c(c1)S(=O)(=O)CCC2 (stereo not shown) [ASAP-0011198],remaining activity at 10 µM,[1]; batch_name=ASAP-0011198-002,108%
same,remaining activity at 10 µM,[2]; batch_name=ASAP-0011198-002,106%
same,remaining activity at 10 µM,[3]; batch_name=ASAP-0011198-002,118%
same,remaining activity at 10 µM,[4]; batch_name=ASAP-0011198-002,106%
same,remaining activity at 10 µM,[5]; batch_name=ASAP-0011198-002,107%
same,remaining activity at 10 µM,[6]; batch_name=ASAP-0011198-002,100%
same,remaining activity at 10 µM,[7]; batch_name=ASAP-0011198-002,89%
same,remaining activity at 10 µM,[8]; batch_name=ASAP-0011198-002,94%
